Patent publication US8101760B2, “Glucocorticoid receptor modulator and methods of use” (Eli Lilly and Company, priority 2007, dated 2012)

Key:
[1] = tested on: IL-1β-stimulated IL-6 production in human skin fibroblast CCD-39SK cells; experiment: GR-mediated transrepression: IL-1β-stimulated IL-6 production in CCD-39SK cells; type: cell-based; details: mean of 22 determinations, read-out: EC50, inhibition of IL-6 expression
Experimental: Glucocorticoid Receptor-Mediated Transrepression Assays: 1. IL-1β-Stimulated IL-6 Production in Human Skin Fibroblast CCD-39SK Cells:
Briefly, human skin fibroblast CCD-39SK cells (20,000 cells/well), obtained from the American Type Culture Collection (ATCC), Manassas, Va. U.S.A. (ATCC Catalog #CRL-1501) are seeded in 96-well plates in SF-GM (MEM) medium (ATCC Catalog #30-20030), supplemented with 10% fetal bovine serum (FBS), 100 U/mL penicillin, 100 μg/mL streptomycin and 2 mmol/L L-glutamine. Cells are maintained in a humidified chamber with 5% CO2 at 37° C. Test compounds are added to the wells in various concentrations ranging from a final concentration of about 4.65 pM to 4.64 μM. 0.1 μM of dexamethasone is used as a positive control. 1-hour post treatment with test compound, IL-1β is added at final concentration of 1 ng/mL and the reaction mixture is incubated overnight. IL-6 concentrations are measured with an ELISA Kit (R&D Systems, Inc., Minneapolis, Minn., U.S.A.) using standard techniques. Briefly, take 10 μL of supernatant from each well and add 90 μL of assay buffer. IL-6 concentrations are quantified by reading absorbance at 450 nm. A standard curve of absorbance versus IL-6 concentration is constructed and used to determine the concentration of IL-6 in experimental samples.

[2] = target: T1, human PR (progesterone receptor) (Homo sapiens, UniProt P06401); experiment: Nuclear hormone receptor binding assay, PR
T1 construct: expressed in transfected cells; host or cells: HEK293 (lysate, '293-PR lysate')
T1 sequence (P06401 1-933): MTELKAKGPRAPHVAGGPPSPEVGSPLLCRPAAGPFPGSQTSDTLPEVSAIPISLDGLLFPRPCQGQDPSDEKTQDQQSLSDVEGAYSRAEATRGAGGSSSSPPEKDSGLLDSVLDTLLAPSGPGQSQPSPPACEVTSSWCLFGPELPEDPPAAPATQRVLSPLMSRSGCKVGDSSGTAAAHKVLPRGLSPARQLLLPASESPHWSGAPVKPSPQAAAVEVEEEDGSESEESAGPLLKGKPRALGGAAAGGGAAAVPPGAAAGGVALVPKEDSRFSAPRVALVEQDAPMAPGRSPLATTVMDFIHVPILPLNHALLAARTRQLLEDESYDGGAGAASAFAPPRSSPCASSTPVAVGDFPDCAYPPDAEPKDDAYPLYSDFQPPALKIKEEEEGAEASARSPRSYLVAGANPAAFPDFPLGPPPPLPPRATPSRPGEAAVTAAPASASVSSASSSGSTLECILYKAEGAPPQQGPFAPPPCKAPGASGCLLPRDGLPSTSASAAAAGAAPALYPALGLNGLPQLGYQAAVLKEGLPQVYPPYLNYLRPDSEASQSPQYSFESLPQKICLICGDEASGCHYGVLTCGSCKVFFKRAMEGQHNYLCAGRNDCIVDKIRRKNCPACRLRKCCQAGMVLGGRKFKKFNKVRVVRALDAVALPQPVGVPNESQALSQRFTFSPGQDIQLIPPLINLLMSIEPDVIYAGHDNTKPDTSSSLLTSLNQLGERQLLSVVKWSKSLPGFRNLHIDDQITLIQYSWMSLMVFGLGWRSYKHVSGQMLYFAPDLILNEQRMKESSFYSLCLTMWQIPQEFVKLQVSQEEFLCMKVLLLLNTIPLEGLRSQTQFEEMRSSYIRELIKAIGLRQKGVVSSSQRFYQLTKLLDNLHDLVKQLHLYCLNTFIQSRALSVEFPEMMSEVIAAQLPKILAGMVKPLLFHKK
Experimental: Cell lysates from human embryonic kidney HEK293 cells overexpressing human GR (glucocorticoid receptor), AR (androgen receptor), MR (mineralocorticoid receptor), or PR (progesterone receptor) are used for receptor-ligand competition binding assays to determine Ki values.
Briefly, steroid receptor competition binding assays are run in a buffer containing 20 mM Hepes buffer (pH=7.6), 0.2 mM EDTA, 75 mM NaCl, 1.5 mM MgCl2, 20% glycerol, 20 mM sodium molybdate, 0.2 mM DTT (dithiothreitol), 20 μg/mL aprotinin and 20 μg/mL leupeptin. Typically, steroid receptor binding assays include radio-labeled ligands, such as 0.3 nM [^3H]-dexamethasone for GR binding, 0.36 nM [^3H]-methyltrienolone for AR binding, 0.25 nM [^3H]-aldosterone for MR binding, and 0.29 nM [^3H]-methyltrienolone for PR binding, and either 20 μg 293-GR lysate, 22 μg 293-AR lysate, 20 μg 293-MR lysate or 40 μg 293-PR lysate per well. Assays are typically run in 96-well format. Competing test compounds are added at various concentrations ranging from about 0.01 nM to 10 μM. Non-specific binding is determined in the presence of 500 nM dexamethasone for GR binding, 500 nM aldosterone for MR binding, or 500 nM methyltrienolone for AR and PR binding. […] After an incubation of 2 hours, plates are read in a Wallac Microbeta counter. […]

[3] = Hygroscopicity and solid-state stability; type: physicochemical

CC/C(=C1\c2ccc(Cl)cc2OCc2ncccc21)c1cccc(NS(C)(=O)=O)c1 [Compound (I), (E)-N-{3-[1-(8-Chloro-11H-10-oxa-1-aza-dibenzo[a,d]cyclohepten-5-ylidene)-propyl]-phenyl}-methanesulfonamide]
EC50 [1]: ~4.8 nM
Ki ([2]; HEK293 cell lysate expressing human PR, [3H]-methyltrienolone, mean of 5 determinations): 31 nM
greater affinity for GR relative to PR ([2]; binding selectivity GR vs PR): ≥ 30 fold
hygroscopicity [3]: non-hygroscopic
stability ([3]; increased temperature, relative humidity, and light exposure): stable
